Experimental findings from paper PMC2778353, “Toxicity of Xanthene Food Dyes by Inhibition of Human Drug-Metabolizing Enzymes in a Noncompetitive Manner” (Journal of Environmental and Public Health, 2009) are described below.

Series [1] deals with T1, UGT1A6 (Homo sapiens, UniProt P19224).
T1 sequence (P19224 27-532): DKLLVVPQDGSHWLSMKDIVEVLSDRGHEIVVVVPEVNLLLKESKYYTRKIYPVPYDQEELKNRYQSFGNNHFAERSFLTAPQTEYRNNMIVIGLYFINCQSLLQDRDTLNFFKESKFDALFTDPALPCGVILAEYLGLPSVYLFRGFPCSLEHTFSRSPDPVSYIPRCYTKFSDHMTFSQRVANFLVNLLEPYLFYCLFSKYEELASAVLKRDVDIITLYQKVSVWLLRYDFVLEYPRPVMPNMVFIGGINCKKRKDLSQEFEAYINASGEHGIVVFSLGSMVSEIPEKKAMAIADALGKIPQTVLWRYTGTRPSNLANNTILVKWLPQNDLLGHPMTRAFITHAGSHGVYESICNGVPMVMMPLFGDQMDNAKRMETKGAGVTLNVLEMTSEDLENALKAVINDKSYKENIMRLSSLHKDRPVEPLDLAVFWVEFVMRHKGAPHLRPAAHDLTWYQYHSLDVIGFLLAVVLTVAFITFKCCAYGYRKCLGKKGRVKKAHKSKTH
Description: Inhibition of UGT1A6 activity (glucuronidation of p-nitrophenol) in pooled human liver microsomes. The conditions noted are these: for Difference of UGT1A6 activity between dark and light: 0.3 mM p-NP. A general note: Liver microsomes are a subcellular fraction often used to study metabolism.
Description: (§2) The enzyme source to measure CYP2A6, CYP3A4, and UGT1A6 activities was pooled human liver microsomes (HLMs), purchased from Gentest (Woburn, MA, USA). […] These enzymes were stored at −80°C.
(§3) The microassay method of UGT activity in this study was carried out according to previous reports [5, 51]. […] In order to investigate the role of reactive oxygen species on the inhibition of UGT1A6 by dyes, we studied the effect of SOD and catalase.
(§4) The inhibition of UGT1A6 activity with p-nitrophenol [5] and of UGT2B7 with androsterone by dyes was studied.

A further series concerns the target T2, CYP3A4 (Homo sapiens, UniProt P08684).
T2 construct: pooled human liver microsomes (HLMs), purchased from Gentest; tissue Gentest (Woburn, MA, USA); host or cells: pooled human liver microsomes
The series is described as follows: Inhibition of CYP3A4 activity in pooled human liver microsomes (7-benzoyloxy-4-(trifluoromethyl)-coumarin substrate). The class given is biochemical. Conditions: for IC50: pooled human liver microsomes. As for the experimental part: (§1) These enzymes were stored at −80°C. Superoxide dismutase (SOD) and catalase are products of Sigma.
CYP3A4 is a major enzyme among phase I drug-metabolizing enzymes and reacts with half of all drugs. To determine the influence of CYP3A4 activity by food dyes, the color of dyes influencing the fluorometric measurement over 30 μM dye concentration was measured. This background was subtracted from the measurement of color pigments.

In series [2] the target is P-glycoprotein (ATPase activity) (Homo sapiens, UniProt P08183). The series is described as follows: in vitro. Conditions: human. As for the experimental part:
as §1

In another series the target is P-glycoprotein (Homo sapiens, UniProt P08183). The series is described as follows: in vitro. The protocol: as §1
Chain of P-glycoprotein (P08183 whole entry): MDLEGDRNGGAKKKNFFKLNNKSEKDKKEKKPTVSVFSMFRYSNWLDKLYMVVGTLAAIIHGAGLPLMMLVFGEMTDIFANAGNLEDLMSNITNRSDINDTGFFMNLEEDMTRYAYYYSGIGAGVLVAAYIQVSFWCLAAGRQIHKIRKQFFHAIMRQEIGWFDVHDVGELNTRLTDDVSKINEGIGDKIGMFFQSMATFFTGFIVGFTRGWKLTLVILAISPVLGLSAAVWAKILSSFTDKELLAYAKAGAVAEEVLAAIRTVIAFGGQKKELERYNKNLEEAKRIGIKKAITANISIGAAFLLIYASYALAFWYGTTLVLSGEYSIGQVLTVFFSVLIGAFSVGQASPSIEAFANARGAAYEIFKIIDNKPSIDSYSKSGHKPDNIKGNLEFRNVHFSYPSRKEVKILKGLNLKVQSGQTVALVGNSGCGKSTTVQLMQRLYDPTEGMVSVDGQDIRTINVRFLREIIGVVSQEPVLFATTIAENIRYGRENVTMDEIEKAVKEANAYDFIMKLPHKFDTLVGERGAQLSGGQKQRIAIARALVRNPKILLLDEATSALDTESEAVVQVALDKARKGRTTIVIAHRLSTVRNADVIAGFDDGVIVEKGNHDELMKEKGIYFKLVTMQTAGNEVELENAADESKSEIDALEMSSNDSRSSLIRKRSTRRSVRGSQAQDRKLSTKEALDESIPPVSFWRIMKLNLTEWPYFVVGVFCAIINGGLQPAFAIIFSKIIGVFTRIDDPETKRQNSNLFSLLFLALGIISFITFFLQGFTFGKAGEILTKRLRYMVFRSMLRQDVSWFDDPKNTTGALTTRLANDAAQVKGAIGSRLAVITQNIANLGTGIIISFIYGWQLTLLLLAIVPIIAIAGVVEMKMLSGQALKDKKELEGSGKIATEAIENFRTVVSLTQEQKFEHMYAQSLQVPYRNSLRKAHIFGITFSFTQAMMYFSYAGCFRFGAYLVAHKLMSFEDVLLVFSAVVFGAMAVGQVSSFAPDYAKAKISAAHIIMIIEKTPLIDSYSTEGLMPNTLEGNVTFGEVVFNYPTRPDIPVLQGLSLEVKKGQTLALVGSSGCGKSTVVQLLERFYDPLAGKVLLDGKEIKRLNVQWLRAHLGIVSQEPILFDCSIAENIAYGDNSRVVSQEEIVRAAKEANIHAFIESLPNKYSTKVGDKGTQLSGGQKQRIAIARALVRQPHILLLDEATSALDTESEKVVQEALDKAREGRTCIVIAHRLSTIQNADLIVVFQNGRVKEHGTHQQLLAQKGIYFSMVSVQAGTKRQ
The next series deals with T3, UGT2B7 (Homo sapiens, UniProt P16662).
T3 construct: purchased Gentest; host or cells: Sf9 cells, baculovirus expression system
T3 sequence (P16662 24-529): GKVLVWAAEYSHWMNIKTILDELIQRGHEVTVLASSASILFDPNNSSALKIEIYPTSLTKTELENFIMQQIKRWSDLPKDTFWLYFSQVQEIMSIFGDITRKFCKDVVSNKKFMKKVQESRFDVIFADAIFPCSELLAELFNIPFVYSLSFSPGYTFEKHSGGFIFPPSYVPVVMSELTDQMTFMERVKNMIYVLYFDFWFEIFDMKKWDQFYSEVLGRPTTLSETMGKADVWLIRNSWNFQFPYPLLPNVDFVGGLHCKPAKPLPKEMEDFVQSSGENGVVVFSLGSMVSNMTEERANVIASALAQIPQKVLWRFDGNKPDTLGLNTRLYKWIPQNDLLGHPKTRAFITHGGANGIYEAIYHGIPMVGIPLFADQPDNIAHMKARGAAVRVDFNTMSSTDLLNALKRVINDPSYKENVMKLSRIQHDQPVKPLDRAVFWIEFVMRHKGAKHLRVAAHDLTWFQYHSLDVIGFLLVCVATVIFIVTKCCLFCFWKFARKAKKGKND
Description: Inhibition of UGT2B7 activity (glucuronidation of androsterone), Sf9 cell membrane. Format: biochemical. The protocol:
as §1

Series [3] concerns the target T1, UGT1A6. The series is described as follows: in vitro.
Description: as §2, §3, §4
[4] abbreviates: human, probe 7-benzoyloxy-4-(trifluoromethyl)-coumarin.
[5] abbreviates: human, pooled human liver microsomes, probe p-nitrophenol.
[6] abbreviates: read-out: IC50 value P-glycoprotein, ATPase activity of P-gp membrane.
Setting [7] is: glucuronidation inhibition by RB.

Read-outs that look alike come from different tables or passages of the source.

T2 sequence (P08684 whole entry): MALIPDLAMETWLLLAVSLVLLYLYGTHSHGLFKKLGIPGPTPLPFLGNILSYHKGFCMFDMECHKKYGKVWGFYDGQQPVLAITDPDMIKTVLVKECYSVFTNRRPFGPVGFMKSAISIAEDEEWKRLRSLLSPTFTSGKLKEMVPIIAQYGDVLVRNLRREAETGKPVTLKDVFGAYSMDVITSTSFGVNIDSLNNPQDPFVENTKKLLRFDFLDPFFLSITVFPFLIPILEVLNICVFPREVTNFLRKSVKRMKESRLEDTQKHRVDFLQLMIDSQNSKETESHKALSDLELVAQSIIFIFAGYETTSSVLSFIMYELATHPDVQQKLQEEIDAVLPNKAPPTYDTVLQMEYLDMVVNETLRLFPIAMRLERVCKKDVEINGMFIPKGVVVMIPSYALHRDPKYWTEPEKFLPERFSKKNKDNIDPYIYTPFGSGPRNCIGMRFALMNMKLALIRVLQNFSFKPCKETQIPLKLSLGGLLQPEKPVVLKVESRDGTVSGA
Chain of P-glycoprotein (ATPase activity) (P08183 whole entry): as the sequence (P08183 whole entry) above

The IC50 is the concentration at which inhibition is half-maximal. Consider `CCN(CC)c1ccc2c(-c3ccccc3C(=O)O)c3ccc(=[N+](CC)CC)cc-3oc2c1` [rhodamine, reference compound], for which, at UGT1A6 [1], the IC50 is > 1000 µM and the “Inhibition of UGT1A6 activity (in words)” value is listed as “did not inhibit”.
`CC(=O)Nc1c(I)c(NC(C)=O)c(I)c(C(=O)[O-])c1I.[Na+]` [sodium diatrizoate, reference compound]: the “Inhibition of UGT1A6 activity (in words)” value at UGT1A6 [1] is “no inhibition”.
Regarding catalase, on UGT1A6 [1] (added to the mixture of UGT1A6 inhibition by ET), the “Prevention of ET inhibition of UGT1A6” value is given as “no prevention”.
Regarding `CNC(=O)c1c(I)c(NC(C)=O)c(I)c(C(=O)O)c1I.CNC[C@H](O)[C@@H](O)[C@H](O)[C@H](O)CO` [meglumine iotalamate, reference compound], on UGT1A6 [1], the “Inhibition of UGT1A6 activity (in words)” value was “no inhibition”.
As for `CC(=O)N(CC(O)CN(C(C)=O)c1c(I)c(C(=O)NCC(O)CO)c(I)c(C(=O)NCC(O)CO)c1I)c1c(I)c(C(=O)NCC(O)CO)c(I)c(C(=O)NCC(O)CO)c1I` (stereo not drawn) [iodixanol, reference compound], on UGT1A6 [1], the “Inhibition of UGT1A6 activity (in words)” value is “no inhibition”.
As to `O=C(O)c1c(Cl)c(Cl)c(Cl)c(Cl)c1-c1c2cc(I)c(=O)c(I)c-2oc2c(I)c(O)c(I)cc12` [Rose Bengal (RB), rose bengal], the “Inhibition of CYP3A4 (in words)” value on CYP3A4 is “showed inhibition”. The IC50 against CYP3A4 (setting [4]) was found to be 21.2 µM; in series [2], 11.7 µM; at UGT1A6 [1] (setting [5]), 15 µM. Moreover, the “Inhibition of P-gp (in words)” value on P-glycoprotein was “well inhibited”. The “Type of inhibition of UGT2B7” value on UGT2B7 is “non-competitive”. Also, at UGT1A6 [1], the “Type of inhibition of UGT1A6 (Lineweaver-Burk plots)” value (“Type of inhibition of UGT1A6” for short) was “non-competitive”. In addition, the “Difference of UGT1A6 activity between dark and light” value on UGT1A6 [1] (0.1 mM RB) is “could not find a significant difference”; on UGT1A6 [1] (0.01, 0.02, and 0.05 mM RB), “significant difference”. Further, on UGT1A6 [1] (D2O solution versus water), the “UGT1A6 activity in D2O relative to H2O in presence of RB” value is “approximately half”.
For the compound `O=C(O)c1cc(N=C=S)ccc1-c1c2cc(Br)c(=O)c(Br)c-2oc2c(Br)c(O)c(Br)cc12` [Dye E5ic, Eosin-5-isothiocyanate, reference compound], 70 µM corresponded to half-maximal inhibition against UGT1A6 [1] (setting [5]) (IC50).
`O=S(=O)(O)c1cc(S(=O)(=O)O)c2c(N=Nc3ccc(S(=O)(=O)O)c4ccccc34)c(O)ccc2c1` [New coccine (NC), new coccine]: the IC50 is > 1000 µM at CYP3A4; > 1000 µM at P-glycoprotein (setting [6]); > 1000 µM on UGT1A6 [1] (read-out: IC50 value UGT1A6, pooled human liver microsomes, p-nitrophenol glucuronidation).
`CCN(Cc1cccc(S(=O)(=O)[O-])c1)c1ccc(C(=C2C=CC(=[N+](CC)Cc3cccc(S(=O)(=O)[O-])c3)C=C2)c2ccccc2S(=O)(=O)[O-])cc1.[Na+].[Na+]` [Brilliant blue FCF (BB), brilliant blue FCF]: the concentration for half-maximal inhibition (IC50) at CYP3A4 and on P-glycoprotein was > 1000 µM throughout. The “Inhibition of UGT1A6 activity (in words)” value on UGT1A6 [1] is recorded as “insignificant inhibition”.
As for `O=C([O-])C1=NN(c2ccc(S(=O)(=O)[O-])cc2)C(=O)C1N=Nc1ccc(S(=O)(=O)[O-])cc1.[Na+].[Na+].[Na+]` (stereo not drawn) [Tartrazine (TT), tartrazine], the 50% inhibitory concentration (IC50) on CYP3A4 and against P-glycoprotein was > 1000 µM throughout. Further, the “Inhibition of UGT1A6 activity (in words)” value at UGT1A6 [1] was “no inhibition”.
`O=S(=O)([O-])c1ccc2c(N=Nc3ccc(S(=O)(=O)[O-])c4ccccc34)c(O)c(S(=O)(=O)[O-])cc2c1.[Na+].[Na+].[Na+]` [Amaranth (AM), amaranth]: the “Inhibition of CYP3A4 (in words)” value at CYP3A4 is reported as “noninhibition”. For the same compound, the IC50 against CYP3A4 and against P-glycoprotein was > 1000 µM each time. Further, on UGT1A6 [1], the “Inhibition of UGT1A6 activity (in words)” value is reported as “insignificant inhibition”.
Regarding `O=C(O)c1c(Cl)c(Cl)c(Cl)c(Cl)c1-c1c2cc(Br)c(=O)c(Br)c-2oc2c(Br)c(O)c(Br)cc12` [Phloxine (PL), phloxine], the “Inhibition of CYP3A4 (in words)” value on CYP3A4 is given as “showed inhibition”. Moreover, the IC50 at CYP3A4 (setting [4]) was found to be 5.6 µM; in series [2], 24.5 µM; at UGT1A6 [3], 40 µM. The “Inhibition of P-gp (in words)” value at P-glycoprotein is reported as “well inhibited”. The “Type of inhibition of UGT2B7” value on UGT2B7 is “non-competitive”. The “Type of inhibition of UGT1A6” value at UGT1A6 [1] is “non-competitive”.
In the case of `CC1=C(/C=C/C(C)=C/C=C/C(C)=C/C=C/C=C(C)/C=C/C=C(C)/C=C/C2=C(C)CCCC2(C)C)C(C)(C)CCC1` [β-carotene, reference compound], the “Inhibition of glucuronidation of p-NP by UGT1A6 by quencher itself” value (“Inhibition of glucuronidation of p-NP” for short) on UGT1A6 [1] (0.2–0.5 mM) is listed as “no inhibition”. Moreover, the “Prevention of RB inhibition of UGT1A6 by 1O2 quencher” value (“Prevention of RB inhibition of UGT1A6” below) on UGT1A6 [1] (setting [7]) is listed as “did not”.
With `N[C@@H](Cc1c[nH]cn1)C(=O)O` [histidine, reference compound], at UGT1A6 [1] (1 to 20 mM), the “Inhibition of glucuronidation of p-NP” value is reported as “no inhibition”. Also, the “Prevention of RB inhibition of UGT1A6” value on UGT1A6 [1] (setting [7]) is recorded as “significantly prevented”.
For `[N-]=[N+]=[N-].[Na+]` [NaN3, reference compound], at UGT1A6 [1], the “Prevention of RB inhibition of UGT1A6” value is “significantly prevented”. Besides, on UGT1A6 [1] (1 to 20 mM), the “Inhibition of glucuronidation of p-NP” value is listed as “no inhibition”.
Regarding `c1ccc2c(c1)Cc1ccccc1O2` [Xanthene], on UGT1A6 [1], the 50% inhibitory concentration (IC50) is > 1000 µM and the “Inhibition of UGT1A6 activity (in words)” value was “did not inhibit”.
On to `O=C1OC2(c3ccccc31)c1cc(I)c(O)c(I)c1Oc1c2cc(I)c(O)c1I` [Erythrosine B (ET), erythrosine], for which the “Inhibition of CYP3A4 at 30 μM” value on CYP3A4 (30 μM dye) is listed as “completely inhibited”. Further, at P-glycoprotein, the IC50 came to 15.6 µM and the “Inhibition of P-gp (in words)” value was “well inhibited”. Moreover, on UGT2B7, the “Type of inhibition of UGT2B7” value is listed as “non-competitive”. Further, the “Inhibition of UGT2B7 (in words)” value on UGT2B7 (androsterone glucuronidation) is recorded as “inhibited”. Besides, at UGT1A6 [1], the IC50 is 50 µM, the “Inhibition of UGT1A6 activity (in words)” value is listed as “greatest inhibition”, the “Substrate activity for UGT1A6” value was “no substrate activity” and the “Type of inhibition of UGT1A6” value is on record as “non-competitive”. On UGT1A6 [1] (setting [5]), this compound displayed an IC50 of 70 µM.
On to `COc1cc(S(=O)(=O)[O-])c(C)cc1N=Nc1c(O)ccc2cc(S(=O)(=O)[O-])ccc12.[Na+].[Na+]` [Allura red (AL), allura red], for which the IC50 at CYP3A4 and on P-glycoprotein (setting [6]) was > 1000 µM in each case. The “Inhibition of UGT1A6 activity (in words)” value at UGT1A6 [1] is “insignificant inhibition”.
`O=C(O)c1ccccc1-c1c2ccc(=O)cc-2oc2cc(O)ccc12` [Uranine, reference compound]: the “Inhibition of UGT1A6 activity (in words)” value on UGT1A6 [1] is recorded as “did not inhibit”. Moreover, the half-inhibitory concentration (IC50) on UGT1A6 [1] (setting [5]) was > 1000 µM.
Turning to `O=C1/C(=C2\Nc3ccc(S(=O)(=O)[O-])cc3C2=O)Nc2ccc(S(=O)(=O)[O-])cc21.[Na+].[Na+]` [Indigo carmine (ID), indigo carmine], the half-inhibitory concentration (IC50) against CYP3A4 and on P-glycoprotein was > 1000 µM throughout. In addition, the “Inhibition of UGT1A6 activity (in words)” value on UGT1A6 [1] was “no inhibition”.
Regarding `O=S(=O)([O-])c1ccc(N=Nc2c(O)ccc3cc(S(=O)(=O)[O-])ccc23)cc1.[Na+].[Na+]` [Sunset yellow FCF (SY), sunset yellow FCF], the IC50 against CYP3A4 and at P-glycoprotein (setting [6]) was > 1000 µM each time. On UGT1A6 [1], the “Inhibition of UGT1A6 activity (in words)” value is listed as “no inhibition”.
